Test results: patent publication US12421276B2 (priority 2016, dated 2025)
Values joined by “and” are separate entries in the source; they are usually repeats but may differ in a detail not shown here. Identical values can stand only once. Like-named read-outs stand apart in the source and are kept apart here. Each block holds one molecule with its values, some of them ahead of it. Where a SMILES comes first, the peptide text is derived from it. [ ]: non-standard residue; d: D form. The star is where a group is joined. Hexanoyl = CCCCCC(=O)*; Ahx = NCCCCCC(=O)O

What was measured:
[1] = format: in vivo, rat
Description: • 1. Eight (8) male JVC SD rats (purchased from Charles River Lab) were monitored daily for body condition and health status during the 3-5 days acclimation period. The rats were randomly assigned into […] (n=4). • 2. […] The dosed rats were individually placed into a metabolic cage, and have access to food and water at all times. The urine from each rat was collected daily from the metabolic cages, and kept in dry ice. • 4. At predose (0 min), 5 min, 15 min, 30 min, 1 hr, 2 hr, 8 hr, and 24 hr post dosing, approximately 200 ul blood samples were collected from each rat and transferred to EDTA tubes. • 5. The blood samples in EDTA vials were centrifuged at 4° C. and 6,000 rpm for 10 minutes to generate ˜100 μl of plasma per sample. Blood samples were processed as quickly as possible and remain no longer than 2 min at room temperature and no longer than 15 minutes at 4° C. prior to processing. • 6. All samples were transferred for bioanalytic assay using LCMS

[2] = Metabolic stability in simulated gastric fluid (SGF), pH 1.2, with or without pepsin; format: in vitro ADME
Description: (§1) Metabolic Stability in SIF and SGF (Simulated Intestinal and Gastric Fluid)
Buffer 1=SGF without enzyme
Buffer 2=SGF with 0.32% pepsin
(§2) SIF was prepared freshly with 8.7 mM NaOH, 28.65 mM NaH2PO4, 105.85 mM NaCl, with a final pH of 6.8. SGF was prepared freshly with 34.2 mM NaCl, with a final pH of 1.2. Enzymes such as pepsin or pancreatin were added to some buffers. Human and rat plasma (K2 EDTA) were purchased from BioreclamationIVT.
(§3) Compounds were dissolved as 1.5 mM DMSO stocks. Compounds were transferred to SIF, SGF, or plasma at 5 μM on a 96-well deep well plate. After mixing, samples were transferred to several 96-well plates (25 μL/well), and incubated at 37° C. The extent of metabolism was calculated as the disappearance of the test compound, compared to the 0-min control reaction incubations. Candesartan Cilexetil and omeprazole were included as positive controls for SIF and SGF, respectively, to verify assay performance.
(§4) At each of the time points, 150 μL of quench solution (100% acetonitrile with 0.1% formic acid) with internal standard (bucetin for positive ESI mode and warfarin for negative ESI mode) was transferred to each well. Plates were sealed and centrifuged at 4° C. for 15 minutes at 4000 rpm. The supernatant was transferred to fresh plates for LC/MS/MS analysis.
(§5) Elution conditions are detailed in the table below.
(§6) Initial rates of the clearance of test compounds were calculated using linear regression of semi-log plot of % remaining of compounds versus time. The elimination rate constant (equals to −slope) of the linear regression was then used to determine t½ values.

Caco-2 cells = assay: Caco-2 permeability study with or without P-gp inhibitor GF120918; settings: for Abs. Quotient: (Papp A-B with inhibitor − without inhibitor)/Papp A-B with inhibitor; for Caco-2 Cells Permeability Recovery Rate: 1 hr, pH 7.4
Description: Buffer=HBSS, pH 7.4 with 5 mM HEPES
Caco-2 cell plates were obtained commercially and were maintained for 21 days at 37° C. with 5% CO2. Cells were washed with Hank's Balanced Salt Solution (HBSS) 30 min before starting the experiment. Test compound solutions were prepared by diluting from DMSO stock into HBSS buffer in the presence or absence of 10 μM of P-gp inhibitor GF120918. The final DMSO concentration is 0.2%. Prior to each experiment, cell monolayer integrity was verified by transendothelial electrical resistance (TEER). Transport experiment was initiated by adding test compounds to the apical (75 μL) side. Transport plates were incubated at 37° C. in a humidified incubator with 5% CO2. Samples were taken from the donor and acceptor compartments after 1 hr and analyzed by liquid chromatography with tandem mass spectrometry (LC/MS/MS).
Apparent permeability (Papp) values were calculated using the following equation: Papp=(dQ/dt)/A/C0
where dQ/dt is the initial rate of amount of test compound transported across cell monolayer, A is the surface area of the filter membrane, and C0 is the initial concentration of the test compound. C0 is calculated for each condition using a 4-point calibration curve.
Absorption quotient between the two assay conditions was calculated by the following equation:
Absorption quotient (AQ)=(Papp, A-B with inhibitor−Papp, A-B without inhibitor)/Papp, A-B with inhibitor where Papp, A-B with inhibitor and Papp, A-B without inhibitor represent the apparent permeability of test compound from the apical to basal side of the cellular monolayer in the presence and absence of 10 μM P-gp inhibitor GF120918, respectively.
All samples were analyzed on LC/MS/MS using an AB Sciex API 4000 instrument, coupled to a Shimadzu LC-20AD LC Pump system. Analytical samples were separated using a Waters Atlantis T3 dC18 reverse phase HPLC column (10 mm×2.1 mm) at a flow rate of 0.5 mL/min. The mobile phase consisted of 0.1% formic acid in water (solvent A) and 0.1% formic acid in acetonitrile (solvent B).

[3] = Plasma stability study, rat plasma; format: in vitro ADME
Description: (§7) Human and rat plasma (K2 EDTA) were obtained from Bioreclamation.
(§8) Compounds were dissolved as 0.3 mM DMSO stocks. Compounds were transferred to the plasma at 1 μM on a 96-well deep well plate. After mixing, samples were transferred to several 96-well plates (25 μL/well), and incubated at 37° C. The extent of metabolism was calculated as the disappearance of the test compound, compared to the 0-min control reaction incubations. Propantheline was included as a positive control to verify assay performance.
as §4, with “(50% acetonitrile, 50% methanol” for “(100% acetonitrile”, “0.05%” for “0.1%”
as §5, §6

[4] = Plasma stability study, human plasma; format: in vitro ADME
Description: as §7, §8
as §4, with “(50% acetonitrile, 50% methanol” for “(100% acetonitrile”, “0.05%” for “0.1%”
as §5, §6

[5] = Metabolic stability in simulated intestinal fluid (SIF), pH 6.8, with or without pancreatin; format: in vitro ADME
Description: as §1
Buffer 3=SIF without enzyme
Buffer 4=SIF with 1% pancreatin
as §2, §3, §4, §5, §6

[6] = Rat, PO, 10 mg/kg equiv., n = 4, analyte: Parent (BASE STRUCTURE)
[7] = rat, dosed as Base Structure 20 mg/kg, analyte Parent (Base Structure), Average
[8] = rat, dosed as Base Structure 20 mg/kg, analyte Parent (Base Structure), Combined (average ± std. dev.)
[9] = rat, dosed as Base Structure 20 mg/kg, analyte Parent (Base Structure), individual animals
[10] = +GF120918 (10 μM), 10 μM compound

SMILES: CCCCCC(=O)N[C@@H](Cc1ccc(O)cc1)C(=O)N[C@H](C(=O)NCCCCCC(N)=O)[C@@H](C)CC [Base Structure, N-hexanoic-L-tyrosine-L-isoleucine-(6)-aminohexanoic amide, reference compound] (Hexanoyl-Tyr-Ile-[Ahx]-NH2)
- AUC0-24 [1, 6]: 0.4 ± 0.2 ng·h/mL
- Cmax [1, 6]: 0.9 ± 0.5 ng/mL
- Tmax [1, 6]: 24 ± 30 min
- AUC 0-t [1, 7]: 0.4468 ng·h/mL
- Cmax [1, 7]: 0.9267 ng/mL
- Tlag [1, 7]: 0 h
- Tmax [1, 7]: 26.6 min
- AUC 0-t [1, 8]: 0.4 ± 0.2 ng·h/mL
- Cmax [1, 8]: 0.9 ± 0.5 ng/mL
- Tlag [1, 8]: 0 ± 0 h
- Tmax [1, 8]: 24 ± 30 min
- AUC 0-t [1, 9]: 0.6164 ng·h/mL and 0.5175 ng·h/mL and 0.2066 ng·h/mL
- Cmax [1, 9]: 0.689 ng/mL and 1.54 ng/mL and 0.551 ng/mL
- Tlag [1, 9]: 0 h
- Tmax [1, 9]: 4.8 min and 15 min and 60 min
- SGF Stability (pH 1.2) Half-Life (min) ([2]; +Pepsin (0.32%), 5 μM, 37° C.): 26.0 min
- SGF Stability (pH 1.2) 0 min ([2]; +Pepsin (0.32%), 5 μM, 37° C.): 100%
- SGF Stability (pH 1.2) 60 min ([2]; +Pepsin (0.32%), 5 μM, 37° C.): 13%
- SGF Stability (pH 1.2) 240 min ([2]; +Pepsin (0.32%), 5 μM, 37° C.): 0.2%
- SGF Stability (pH 1.2) Half-Life (min) ([2]; −Pepsin, 5 μM, 37° C.): Neg.
- SGF Stability (pH 1.2) 0 min ([2]; −Pepsin, 5 μM, 37° C.): 100%
- SGF Stability (pH 1.2) 60 min ([2]; −Pepsin, 5 μM, 37° C.): 127%
- SGF Stability (pH 1.2) 240 min ([2]; −Pepsin, 5 μM, 37° C.): 122%
- Abs. Quotient (Caco-2 cells): 0.84 and 0.82
- Caco-2 Cells Permeability Recovery Rate (Caco-2 cells; [10]): 83% and 96%
- Caco-2 Cells Permeability Recovery Rate (Caco-2 cells; −GF120918, 10 μM compound): 87% and 91%
- Plasma Stability Half-Life ([3]; Rat plasma, 1 μM, 37° C.): 1095.1 min
- Plasma Stability (% Parent Remaining) 0 min ([3]; Rat plasma, 1 μM, 37° C., 0 min): 100%
- Plasma Stability (% Parent Remaining) 60 min ([3]; Rat plasma, 1 μM, 37° C., 60 min): 87%
- Plasma Stability (% Parent Remaining) 120 min ([3]; Rat plasma, 1 μM, 37° C., 120 min): 89%
- Plasma Stability (% Parent Remaining) 240 min ([3]; Rat plasma, 1 μM, 37° C., 240 min): 83%
- Plasma Stability Half-Life ([4]; Human plasma, 1 μM, 37° C.): 12558.0 min
- Plasma Stability (% Parent Remaining) 0 min ([4]; Human plasma, 1 μM, 37° C., 0 min): 100%
- Plasma Stability (% Parent Remaining) 60 min ([4]; Human plasma, 1 μM, 37° C., 60 min): 98%
- Plasma Stability (% Parent Remaining) 120 min ([4]; Human plasma, 1 μM, 37° C., 120 min): 102%
- Plasma Stability (% Parent Remaining) 240 min ([4]; Human plasma, 1 μM, 37° C., 240 min): 98%
- SIF Stability (pH 6.8) Half-Life (min) ([5]; −Pancreatin, 5 μM, 37° C.): Neg.
- SIF Stability (pH 6.8) 0 min ([5]; −Pancreatin, 5 μM, 37° C., 0 min): 100%
- SIF Stability (pH 6.8) 60 min ([5]; −Pancreatin, 5 μM, 37° C., 60 min): 119%
- SIF Stability (pH 6.8) 240 min ([5]; −Pancreatin, 5 μM, 37° C., 240 min): 113%

- SGF Stability (pH 1.2) Half-Life (min) ([2]; simulated gi fluid, pH 1.2): 389.4 min
- Abs. Quotient (Caco-2 cells): 0.77
- Caco-2 Cells Permeability Recovery Rate (Caco-2 cells; [10]): 83%
- Caco-2 Cells Permeability Recovery Rate (Caco-2 cells; −GF120918, 10 μM compound): 91%
- Plasma Stability Half-Life ([3]; rat, plasma): 8.2 min
- Plasma Stability Half-Life ([4]; human, plasma): 10.1 min
- SIF Stability (pH 6.8) Half-Life (min) ([5]; simulated gi fluid, pH 6.8): 34.7 min
SMILES: CCCCCC(=O)NC(Cc1ccc(OC(=O)CN(C)C)cc1)C(=O)NC(C(=O)NCCCCCC(N)=O)C(C)CC (stereo not shown) [Compound A25]

- Abs. Quotient (Caco-2 cells): 0.70
- Caco-2 Cells Permeability Recovery Rate (Caco-2 cells; [10]): 94%
- Caco-2 Cells Permeability Recovery Rate (Caco-2 cells; −GF120918, 10 μM compound): 90%
- Plasma Stability Half-Life ([3]; rat, plasma): 31.9 min
- Plasma Stability Half-Life ([4]; human, plasma): 13.2 min
SMILES: CCCCCC(=O)NC(Cc1ccc(OC(=O)C(N)C(C)C)cc1)C(=O)NC(C(=O)NCCCCCC(N)=O)C(C)CC (stereo not shown) [Compound A27] (Hexanoyl-Tyr(Val)-Ile-[Ahx]-NH2; configuration not given here)
